Test results reported in patent US20110097773A1, “METHOD FOR PRODUCING BUTANOL USING EXTRACTIVE FERMENTATION” (BUTAMAX(TM) ADVANCED BIOFUELS LLC, priority 2009, published 2011).

Key:
S. cerevisiae BY4741 = test: Biocompatibility of extractants: glucose utilization rate of the microorganism during extraction; format: cell-based, Saccharomyces cerevisiae; conditions: percentage of average value for oleyl alcohol (Comparative Example A); 25 mL extractant/75 mL culture broth, 40 g/L initial isobutanol, 30° C., 8 hours
Experimental: (§1) Each extractant was contacted with a fermentation medium and isobutanol as described below to determine the partition coefficient of the extractant. The biocompatibility of the extractant was also assessed by determining the glucose utilization rate of the microorganism during the extraction.
The following experimental procedure was used. In these experiments the amount of ethanol depended on the amount of glucose consumption but typical ethanol values were in the range of 10-15 g/L. The presence of ethanol in these concentrations is not expected to impact glucose consumption and the partitioning of butanol into the extractant. Seed shake flasks containing 250 mL of yeast extract/peptone/dextrose (YPD) medium were inoculated with 150 μL of S. cerevisiae BY4741 inoculum and incubated for about 14 hours at 30° C. with shaking at 250 rpm in a table top shaker (Innova 4230, New Brunswick scientific, Edison, N.J.). When the OD600 reached about 0.4, the glucose concentration in the culture broth was analyzed rapidly by a Select Biochemistry Analyzer and extra glucose was added to reach a final concentration of about 25 g/L. The culture broth was divided into 125 mL flasks, each containing 75 mL of the culture broth. After one hour of incubation at 30° C. with shaking at 200 rpm, 3.75 mL of isobutanol was added to each flask in order to bring the initial isobutanol concentration in the aqueous phase to 40 g/L. The incubation of the biphasic fermentation medium comprising an aqueous phase and a butanol-containing organic phase was continued at 30° C. with shaking at 100 rpm for 8 hours. The aqueous and organic phases in each flask were separated by decantation. The aqueous phase was centrifuged (2 minutes on 13,000 rpm with an Eppendorf centrifuge model 5415R) to remove cells and the supernatant analyzed for glucose, ethanol, and isobutanol by HPLC.
Glucose utilization rates were calculated by noting the difference in glucose concentrations between samples and the time between samples and computing a rate accordingly, for example ([glucose]t2−[glucose]t1)/(t2−t1) where t1 refers to a time earlier than t2 and [glucose] means the concentration of glucose.
Comparative Example A was repeated three times and the results averaged. For the extractants of Comparative Examples A-G, the partition coefficient for isobutanol and the glucose utilization rate are expressed below in Table 3 as percentages of the average values determined for oleyl alcohol (Comparative Example A). A value greater than 100% indicates a result which is numerically larger than that for oleyl alcohol. A value less than 100% indicates a result which is numerically smaller than that for oleyl alcohol. A value of 100% indicates a result which is the same as that for oleyl alcohol. As disclosed in US Patent Application Publication No. 2009-0305370 A1, oleyl alcohol performed well in single solvent extractive fermentations for isobutanol production.
(§2) The extractants listed in Table 2 were evaluated using the procedure described above, but with the following modifications. After the culture broth was divided into 125 mL flasks, each containing 75 mL of the culture broth, oleyl alcohol was added as the first solvent to each flask in the amount shown in Table 2.
For the extractants of Examples 1-15, the partition coefficients for isobutanol and the glucose utilization rate are expressed below in Table 3, together with the results for Comparative examples A-G, as percentages of the average values determined for oleyl alcohol (Comparative Example A). A value greater than 100% indicates a result which is numerically larger than that for oleyl alcohol. A value less than 100% indicates a result which is numerically smaller than that for oleyl alcohol. A value of 100% indicates a result which is the same as that for oleyl alcohol.

[1] = Partition coefficient for isobutanol between extractant (organic phase) and fermentation medium (aqueous phase); format: physicochemical; conditions: isobutanol partition coefficient (organic/aqueous) as percentage of average value for oleyl alcohol (Comparative Example A); 40 g/L initial isobutanol, 30° C.
Experimental: as §1
The following experimental procedure was used. […] When the OD600 reached about 0.4, the glucose concentration in the culture broth was analyzed rapidly by a Select Biochemistry Analyzer and extra glucose was added to reach a final concentration of about 25 g/L. The culture broth was divided into 125 mL flasks, each containing 75 mL of the culture broth. After one hour of incubation at 30° C. with shaking at 200 rpm, 3.75 mL of isobutanol was added to each flask in order to bring the initial isobutanol concentration in the aqueous phase to 40 g/L. The incubation of the biphasic fermentation medium comprising an aqueous phase and a butanol-containing organic phase was continued at 30° C. with shaking at 100 rpm for 8 hours. The aqueous and organic phases in each flask were separated by decantation.
Partition coefficients for the isobutanol distribution between the organic and aqueous phases were calculated from the known amount of isobutanol added to the flask and the isobutanol concentration data measured for the aqueous phase. The concentration of isobutanol in the extractant phase was determined by the mass balance. The partition coefficient was determined as the ratio of the isobutanol concentrations in the organic and the aqueous phases, i.e., Kp=[Isobutanol]Organic phase/[isobutanol]Aqueous phase.
(§3) A value greater than 100% indicates a result which is numerically larger than that for oleyl alcohol. A value less than 100% indicates a result which is numerically smaller than that for oleyl alcohol. A value of 100% indicates a result which is the same as that for oleyl alcohol.
as §2, §3

| SMILES | % Glucose Utilization Rate (S. cerevisiae BY4741) | % KP [1] |
| --- | --- | --- |
| CCCCCCCC/C=C\CCCCCCCCO [Comparative Ex. A, Oleyl Alcohol] | 100% | 100% |
| CCCCCCCCCCCCO [Comparative Ex. G, 1-Dodecanol] | 84% |  |
| CCCCCCCCC=O [Comparative Ex. E, 1-Nonanal] | 0% | 132.6% |
| CCCCCCCCCO [Comparative Ex. B, 1-Nonanol] | 0% |  |
| CCCCCCCCCCO [Comparative Ex. F, 1-Decanol] | 0% | 139.0% |
| CCCCCCCCCCCO [Comparative Ex. C, 1-Undecanol] | 0% | 127.0% |
| CCCCCCCCCC(C)O (stereo not drawn) [Comparative Ex. D, 2-Undecanol] | 0% | 139.0% |
